What all share (format): in vitro ADME
One series deals with T1, P-gp (MDR1) (Homo sapiens, UniProt P08183).
T1 construct: host or cells: MDR1-MDCK cell monolayers
The series is described as follows: MDCK-MDR1 monolayer permeability and efflux. More on the design: dose or concentration left out as unconfirmed. The conditions noted are these: dog; for Papp at 2 h: MDCK-MDR1; for efflux ratio at 2 h: MDCK-MDR1 efflux ratio, read-out: P-gp ER. How it is done: page 9: Brain plasma concentration ratio (Kp) was calculated by dividing brain concentration by plasma concentration for each animal. Unbound brain to unbound plasma concentration ratio (Kp,uu) is calculated using the following formula: Kp,uu = (Brain ng/g x brain fu)/(plasma ng/ml x plasma fu). Pharmacokinetic profiles in rats following oral single escalating doses Single escalating oral dosing in Sprague-Dawley rats was performed at Frontage Laboratories according to their non-GLP Standard Operating Procedure and IACUC protocols. In short, compounds were formulated in 10% Tween 80 in water and dosed at 10 mg/kg. At different times, arterial blood was collected from a femoral artery catheter, and compound concentration was determined in plasma by LC-MS/MS following their non-GLP protocol. PK parameters were determined using Phoenix WinNonlin software (version 6.3). In-vitro determination of blood-brain barrier penetration potential Blood-brain barrier penetration was determined using MDR1-MDCK cell monolayers by Absorption Systems, following their protocol. In short, compounds were incubated […] final concentration on one side of the cell monolayer for 2 hours. Compounds concentration on either side of the monolayer was determined by LC-MS/MS and apparent permeability and efflux ratio were determined as described in Wang, Q. et al.1 Behavioral Manifestations of Seizure Activity To evaluate induction of behavioral manifestation of seizure activity, C57Bl/6 mice received administration of vehicle or 100 mg/kg M1 PAM 5. Compound was formulated in 30% Captisol (pH 7.0) at a concentration of 10 mg/mL and injected i.p. at 10 ml/kg (n = 4). Animals were monitored continuously and scored for behavioral manifestations of seizure activity at 5, 15, 30 min, and 1 h. Behavioral manifestations of seizures were scored using a modified Racine scoring system. Briefly, a score of 0 represents no behavior alterations; score 1, immobility, mouth and facial movements, or facial clonus; score 2, head nodding, tail extension; score 3, forelimb clonus, repetitive movements; score 4, rearing and tonic clonic seizure; and score 5, continuous rearing and falling, severe generalized tonic clonic seizure. Novel Object Recognition Task S9

Series [1] can be described thus: Plasma protein binding, equilibrium dialysis (rat). The conditions noted are these: pH 7.4, read-out: fu,plasma. How it is done:
page 5: Drug Metabolism Methods: In vitro Plasma protein binding and Brain homogenate binding: Determination of fraction unbound (f u) in plasma was conducted in vitro via equilibrium dialysis using HTDialysis (HTD) membrane plates. The top half of the plate was filled with 100 uL of Dubelco’s Phosphate Buffered Saline, pH 7.4 (DPBS). Compounds were diluted into plasma from each species (5 µM final concentration), which was aliquoted in triplicate to the ‘bottom half’ of the prepared HTD plate wells. The HTD plate was sealed and incubated for 6 hours at 37 °C. Following incubation, each well (both top and bottom halves) were transferred (20 µL) to the corresponding wells of a 96- shallow-well (V-bottom) plate. The daughter plates were then matrix-matched (DPBS side wells received equal volume of plasma, and plasma side wells received equal volume of DPBS), and extraction solution (120 µL; acetonitrile containing 50 nM carbamazepine as IS) was added to all wells of both daughter plates to precipitate protein and extract test article. The plates were then sealed and centrifuged (3500 rcf) for 10 minutes at ambient temperature. Supernatant (60 µL) from each well of the daughter plates was then transferred to the corresponding wells of new daughter plates (96-shallow-well, V bottom) containing water (Milli-Q, 60 µL/well), and the plates were sealed in preparation for LC-MS/MS analysis (see LC-MS/MS analysis method below). The unbound fraction (f u) was calculated following the equation below, and mean values for each species were calculated from 3 replicates. […] Fraction unbound for both plasma and brain samples was determined using Equation 4. f = Concbuffer u Concplasma Equation 4 Determination of fraction unbound in plasma. […]

The nature of series [2]: Hepatocyte metabolite identification (human). The conditions noted are these: human hepatocytes, 4 h incubation. How it is done: Prior to full characterization of deuterated analogues 3 and 5, they were incubated in rat, dog, monkey, and human hepatocytes, along with 1, to determine the amount of parent remaining, as well as the degree of undesired oxidative metabolites 2, 4, and 6 (Figure 2). […] For the gem-dideutero congener 3, metabolic stability was improved in vitro. […] Thus, in hepatocytes in vitro, the kinetic isotope effect engendered greater metabolic stability of the labile hot spot on the lactam. It remained to be seen if this effect would translate in vivo, but we first had to assess the impact of the deuterated analogues on molecular pharmacology, in vitro DMPK, standard low-dose in vivo DMPK and, if warranted, in vivo efficacy in a rat novel object recognition (NOR) behavioral assay.

T1 sequence (P08183 whole entry): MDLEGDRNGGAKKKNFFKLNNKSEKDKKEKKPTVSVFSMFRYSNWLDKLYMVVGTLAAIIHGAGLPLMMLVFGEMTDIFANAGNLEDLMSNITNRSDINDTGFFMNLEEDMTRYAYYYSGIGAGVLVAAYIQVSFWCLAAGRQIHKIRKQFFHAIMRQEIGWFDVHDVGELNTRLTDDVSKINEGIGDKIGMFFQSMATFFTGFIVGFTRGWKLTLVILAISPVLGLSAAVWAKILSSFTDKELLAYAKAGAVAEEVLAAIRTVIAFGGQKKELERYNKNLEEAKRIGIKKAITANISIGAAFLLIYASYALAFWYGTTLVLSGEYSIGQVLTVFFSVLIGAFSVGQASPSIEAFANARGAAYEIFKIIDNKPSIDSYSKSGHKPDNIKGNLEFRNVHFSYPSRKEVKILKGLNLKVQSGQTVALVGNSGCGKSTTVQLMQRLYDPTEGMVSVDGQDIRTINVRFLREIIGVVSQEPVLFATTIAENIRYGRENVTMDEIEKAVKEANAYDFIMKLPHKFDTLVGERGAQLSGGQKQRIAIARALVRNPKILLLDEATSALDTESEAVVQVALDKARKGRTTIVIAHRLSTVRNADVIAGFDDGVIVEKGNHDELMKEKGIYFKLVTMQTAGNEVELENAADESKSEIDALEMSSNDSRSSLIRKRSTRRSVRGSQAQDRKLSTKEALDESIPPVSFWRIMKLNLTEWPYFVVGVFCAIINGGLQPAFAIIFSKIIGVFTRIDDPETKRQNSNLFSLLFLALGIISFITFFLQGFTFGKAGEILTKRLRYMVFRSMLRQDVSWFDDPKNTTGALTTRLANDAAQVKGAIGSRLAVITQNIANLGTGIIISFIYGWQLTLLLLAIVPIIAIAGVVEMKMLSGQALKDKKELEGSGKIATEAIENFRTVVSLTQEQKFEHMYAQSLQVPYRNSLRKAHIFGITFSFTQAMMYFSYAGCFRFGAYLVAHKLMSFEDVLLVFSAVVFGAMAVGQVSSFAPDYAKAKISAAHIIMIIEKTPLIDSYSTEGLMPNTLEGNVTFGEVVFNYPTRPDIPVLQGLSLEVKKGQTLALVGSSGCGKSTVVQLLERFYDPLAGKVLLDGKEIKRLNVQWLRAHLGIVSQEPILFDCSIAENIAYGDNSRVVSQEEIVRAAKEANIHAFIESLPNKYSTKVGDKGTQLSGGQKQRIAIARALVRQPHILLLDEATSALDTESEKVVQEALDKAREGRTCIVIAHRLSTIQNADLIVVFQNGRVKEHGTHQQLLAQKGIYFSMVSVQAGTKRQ

With `Cn1cc2c(-c3cc(F)c(CN4Cc5ncccc5C4=O)c(F)c3)cccc2n1` [compound 1], on P-gp (MDR1), the Papp at 2 h was 31.1 ×10⁻⁶ cm/s and the efflux ratio at 2 h was found to be 1.8. In addition, the fraction unbound at 6 h, 5 µM in series [1] amounted to 0.028. Further, the “% Total Peak Area, parent remaining” value in series [2] worked out at 65.1%.
Taken in the same sequence, the figures for `[2H]C1([2H])c2ncccc2C(=O)N1Cc1c(F)cc(-c2cccc3nn(C)cc23)cc1F` [compound 3] were 41.2 ×10⁻⁶ cm/s, 1.55, 0.034 and 82.6%.
Taken in the same sequence, the figures for `[2H]C1([2H])c2ncccc2C(=O)N1Cc1c(F)cc(-c2cccc3nn(C([2H])([2H])[2H])cc23)cc1F` [compound 5] were 34.2 ×10⁻⁶ cm/s, 1.3, 0.026 and 92.3%.
